Measured values reported in patent US20230149507A1, “TREATMENT OF ALT CANCERS” (INSTITUTO DE MEDICINA MOLECULAR JOÃO LOBO ANTUNES, priority 2019, published 2023).

How the values were obtained:
[1] = tested on: U-2 OS cells; assay: Single molecule analysis of telomeric extension events (SMAT) in cells overexpressing FANCM variants; type: cell-based, human; details: overexpression
From the text: (a) Schematic of FANCM domain interactions, mutations or deletions. For clarity, domains have been color coded by functional role (bottom panel). (b) Quantitation of metaphase-TIFs in U-2 OS cells stably overexpressing wild-type (FANCM+) or FANCM mutants. Scatterplot bars represent the mean±SEM. Out of 3 experiments, n≥110 metaphases scored for each mutant, *p<0.05, **p<0.005, Mann-Whitney test. (c) Quantitation of fragile telomeres in U-2 OS cells stably overexpressing wild-type (FANCM+) or FANCM mutants. Scatterplot bars represent the mean±SEM. Out of 3 experiments, n>100 metaphases scored for each mutant, *p<0.05, **p<0.005, Mann-Whitney test. (d) Representative dot blots and quantitation of C-circle assays in U-2 OS cells stably overexpressing wild-type (FANCM+) or FANCM domain mutants. C-circles were normalized to the mean of vector control. Error bars represent mean±SEM from n=3 experiments, *p<0.05, **p<0.005, Student's t-test. […]
Cells were labelled with 100 μM CIdU for 5 h prior to harvesting by trypsinization. […] Halogenated nucleotides were detected with a rat anti-CldU monoclonal antibody (Accurate) and Alexa Fluor 488-conjugated goat anti-rat antibody (Molecular Probes). Telomere fibers were detected on a Zeiss Axio Imager microscope with ApoTome module and analyzed with Zen software (Zeiss).

[2] = tested on: U-2 OS cells; assay: TRF analysis of cells overexpressing FANCM variants; type: cell-based, human; details: overexpression
From the text: (a) Western immunoblotting of stable wild-type FANCM (FANCM+) or FANCM mutant overexpression in U-2 OS cells. […] (b) TRF analysis of U-2 OS cells overexpressing wild-type (FANCM+) or FANCM mutants. Gels were hybridized under native and denatured conditions with radiolabelled telomeric probes to detect the C-strand and G-strand. (c) Tukey boxplots of APB frequency (top panel) and mean APB telomere intensity (bottom panel) in U-2 OS cells overexpressing wild-type (FANCM+) or FANCM mutants. Out of 3 experiments, n=150 cells scored per variant, *p<0.05, **p<0.005, Mann-Whitney test.
Empty vector and wild-type FANCM (pCMV6-Myc-DDK) constructs were obtained from Origene Technologies. Wild type FANCM (SEQ ID NO: 2) and FANCM mutants (SEQ ID NOs: 19 to 28) were cloned into the pLenti-C-Myc-DDK-IRES-Neo backbone (Origene Technologies) by restriction enzyme subcloning of gene blocks synthesized by Integrated DNA Technologies (IDT). Lentivirus was produced by the Vector and Genome Engineering Facility (Children's Medical Research Institute). For stable overexpression, cells were transduced with lentivirus, allowed to recover for 24 h, and subject to G418 selection. Cells were maintained in G418 to ensure sustained overexpression.
Genomic DNA was digested with 4 U/μg of HinfI and RsaI overnight at 37° C. […]

Substance | number of telomere extension events [1] | low molecular weight ss C-rich telomeric DNA [2]
FF>AA: FANCM mutant (SEQ ID NO: 25), double substitution F1232A/F1236A within the MM2 domain | significant increase in the number of extension events | smear of low molecular weight ss C-rich telomeric DNA was observed
K117R: FANCM mutant (SEQ ID NO: 20) substituted at K117R, DEAH domain disrupted | – | smear of low molecular weight ss C-rich telomeric DNA was observed
